Measurements: patent US20050075398A1, “Neuroprotectin D1 protects against cellular apoptosis, stroke damage, alzheimer's disease and retinal diseases” (priority 2003, published 2005)

Legend:
[1] = test system: infarcted volume (stroke volume); assay: Stroke volume by TTC staining after MCA-O; assay type: in vivo, mouse
Experimental: Assessment of stroke volume. Forty-eight hours after MCA-O, mice were killed, and brains were dissected and immersed in ice-cold saline. The dissected brains were embedded in agar blocks and sectioned into coronal slices 1 mm thick by a vibratome (Vibratome Co. St. Louis, Mo.). Sections were incubated at room temperature in a 3% buffered solution of 2,3,5,-triphenyltetrazolium chloride (TTC). Once color developed (10 to 15 min), sections were fixed in 10% buffered formalin, and kept at 4° C. until images were recorded by a camera (Cool-snap, Nikon) mounted to a dissecting microscope. In the digital images, total brain area and stroke areas were analyzed and calculated by Adobe Photoshop software. Serial sections were made for all animals. (Digital images not included).
To test for in vivo bioactivity of 10,17S-docosatriene (NPD1) in brain during focal ischemic stroke, Alzet mini-pumps were implanted into the third ventricle to deliver the lipid messenger over the 48 h reperfusion following 1 h of MCA-O. Brain coronal sections were incubated at room temperature in 3% buffered TTC (triphenyltetrazolium chloride) for approximately 10-15 min. The docosanoid 10,17S-docosatriene (NPD1) was infused (1 μg over 48 h by implanted Alzet mini-pumps). In photos, colorless areas indicated mitochondrial damage reflecting the inability to metabolize TTC. […]

IL-1β gene expression = assay: HGU133 GeneChip DNA array in HN cells: IL-1β; assay type: cell-based, human; details: Aβ42 25 μM, DHA 50 nM or NPD1 50 nM, 18 h, nsc = no significant change
Bcl-2 protein = assay: Western analysis of Bcl-2 in HN cells; assay type: cell-based, human; details: 50 nM, p<0.05
Experimental: Western Analysis. Total protein was extracted, and 25 μg of protein was analyzed by Western blots using human Bcl-2, Bfl-1 (A1) and actin antibodies. […] Human specific anti-Bfl-1(A1)[Cat. No. sc-8351] was obtained from Santa Cruz Biotechnology (Santa Cruz, Calif.). For Western analysis, signal-intensity data were gathered by phosphorimaging onto molecular imaging screens (FUJIFILM) for 3-36 h using a Typhoon Molecular Imager system (Amersham Biosciences) as described in Bazan and Lukiw, 2002.
To confirm the above changes in Bcl-2 and Bfl-1(A1), Western analysis was performed using anti-Bcl-2, anti-Bfl-1(A1), and anti-actin primary antibodies (B3170 Sigma Life Science, sc-8351 Santa Cruz, and A2103 Sigma, respectively). The results of the Western analysis confirm up-regulation of Bcl-2 and Bfl-1(A1) anti-apoptotic proteins over actin controls in DHA- and NPD1-treated cells.

Bcl-2 = assay: Western blot of Bcl-2 in ARPE-19 cells under TNFα/H2O2; assay type: cell-based, human; details: 50 nM; TNFα plus H2O2 (400 or 800 μM) 6 h
Experimental: (§1) Analysis of pro- and anti-apoptotic proteins in ARPE-19 cells: Bcl-2 family proteins were analyzed by Western-blot analysis. In brief, 20-μg equivalents of each cell extract were subjected to electrophoresis on a 8-16% gel (Promega, Madison, Wis.) at 125 volts for 2 h. The proteins were transferred to nitrocellulose membrane at 30 volts for 1 h at 4° C. The membranes were subjected to treatment with primary antibodies of Bcl-2, Bcl-xL, Bax, and Bad for 1 h at room temperature, and probed 30 min with secondary antibody, goat anti-rabbit Ig:HRPO and HRP-conjugated anti-biotin antibody. (BD Sciences—Pharminogen, San Diego, Calif.) Then proteins were evaluated using an ECL kit. (Amersham Biosciences Corp., Piscataway, N.J.)
(§2) Using the same TNFα/H2O2 concentrations, Bcl-2 proteins were assayed. Cells were grown for 72 h after plating, placed in serum-free medium for 1 h, then incubated with TNFα/H2O2 for 6 h. Protein expression and Western-blot analysis were performed as described in Example 13. Data in FIGS. 14A, 14B, 14C and 14D represent four independent experiments with triplicate samples in each case. Anti-apoptotic protein Bcl-xL was enhanced in ARPE-19 cells by TNFα/H2O2 (800 μM) (FIG. 14B, first bar), whereas Bcl-2 was not changed (FIG. 14A, first bar).

Bad = assay: Western blot of Bad in ARPE-19 cells under TNFα/H2O2; assay type: cell-based, human; details: 50 nM; similar conditions (800 μM H2O2 with TNFα)
Experimental: as §1, §2

caspase-3 = assay: Caspase-3 cleavage analysis by Western blot (PARP); assay type: cell-based, human; details: NPD1 50 nM added with TNFα/H2O2, 6-8 h; TNFα/H2O2 alone 80.8%
Experimental: Caspase-3 cleavage analysis: Caspase-3 cleavage was evaluated by Western-blot analysis after using PARP as substrate. Briefly, 20 μg equivalent of each cell extract was electrophoresed on an 8-16% gel (Promega, Madison, Wis.) for 2 h at 125 volts. The proteins were transferred onto nitrocellulose membranes as before, and probed with PARP antibody (Santa Cruz Biotechnology, Santa Cruz, Calif.). The degradation of PARP was evaluated using ECL kit.
Effector caspase-3, downstream of pro- and anti-apoptotic proteins, is activated as a consequence of mitochondrial cytochrome c release into the cytoplasm and activation of the apoptosome. ARPE-19 cells were serum-starved for 1 h prior to a 6- to 8-h treatment with TNF-α (10 ng)+H2O2 (either 400 or 800 μM as indicated) in the presence or absence of NPD1 (50 nM). In FIG. 15A, caspase-3 cleavage was detected by Western-blot analysis using PARP (Santa Cruz Biotech.) as antibody. […] In ARPE-19 cells, caspase-3-induced cleavage using endogenous substrate occurred when TNFα/H2O2-triggered oxidative stress was present, as indicated by increased PARP accumulation (an 80.8% increase compared to the control; FIG. 15A).

Question: Which results are given for `CC/C=C\C[C@H](O)\C=C/C=C/C=C/[C@H](O)C/C=C\C/C=C\CCC(=O)O` [NPD1, 10,17S-docosatriene]?
Answer: reduction of stroke volume ([1]; 1 μg over 48 h at 250 nl/h intracerebroventricular, after 48 h): 50%; focal infarcted volume, percentage of total volume ([1]; 1 μg over 48 h by Alzet mini-pump into third ventricle, 1 h MCA-O, 48 h reperfusion, vehicle about 30%): less than 15%; IL-1β gene expression, fold change over untreated controls (IL-1β gene expression): nsc; Bcl-2 protein increase over controls, normalized with actin (Bcl-2 protein): 2.3 fold; effect on Bcl-2 expression (Bcl-2): increased expression; decrease of oxidative stress-increased Bad (Bad): 52%; PARP accumulation (caspase-3 activation), increase compared to the control (caspase-3): 18.3%
